Assays:
Format in all cases: functional
Escherichia coli [1] = test: Antibacterial activity of compound against Escherichia coli at 10 ug/mL expressed as zone of inhibition
Escherichia coli [2] = test: Antibacterial activity of compound against Escherichia coli at 20 ug/mL expressed as zone of inhibition
Escherichia coli [3] = test: Antibacterial activity of compound against Escherichia coli at 40 ug/mL expressed as zone of inhibition
Escherichia coli [4] = test: Antibacterial activity of compound against Escherichia coli at 80 ug/mL expressed as zone of inhibition
Bacillus subtilis [5] = test: Antibacterial activity of compound against Bacillus subtilis at 10 ug/mL expressed as zone of inhibition
Bacillus subtilis [6] = test: Antibacterial activity of compound against Bacillus subtilis at 20 ug/mL expressed as zone of inhibition
Bacillus subtilis [7] = test: Antibacterial activity of compound against Bacillus subtilis at 40 ug/mL expressed as zone of inhibition
Bacillus subtilis [8] = test: Antibacterial activity of compound against Bacillus subtilis at 80 ug/mL expressed as zone of inhibition
Klebsiella pneumoniae [9] = test: Antibacterial activity of compound against Klebsiella pneumoniae at 10 ug/mL expressed as zone of inhibition
Klebsiella pneumoniae [10] = test: Antibacterial activity of compound against Klebsiella pneumoniae at 20 ug/mL expressed as zone of inhibition
Klebsiella pneumoniae [11] = test: Antibacterial activity of compound against Klebsiella pneumoniae at 40 ug/mL expressed as zone of inhibition
Klebsiella pneumoniae [12] = test: Antibacterial activity of compound against Klebsiella pneumoniae at 80 ug/mL expressed as zone of inhibition

Compound	Zone of inhibition (Escherichia coli [1]) [mm]	Zone of inhibition (Escherichia coli [2]) [mm]	Zone of inhibition (Escherichia coli [3]) [mm]	Zone of inhibition (Escherichia coli [4]) [mm]	Zone of inhibition (Bacillus subtilis [5]) [mm]	Zone of inhibition (Bacillus subtilis [6]) [mm]	Zone of inhibition (Bacillus subtilis [7]) [mm]	Zone of inhibition (Bacillus subtilis [8]) [mm]	Zone of inhibition (Klebsiella pneumoniae [9]) [mm]	Zone of inhibition (Klebsiella pneumoniae [10]) [mm]	Zone of inhibition (Klebsiella pneumoniae [11]) [mm]	Zone of inhibition (Klebsiella pneumoniae [12]) [mm]
Nc1ccc(S(=O)(=O)Nc2ncccn2)cc1 [SULFADIAZINE]	9.7	17.2	21.2	24.5	20.86	27.23	26.36	25.93	27.03	29.23	29.53	25.63
N=C(N)NS(=O)(=O)c1ccc(N)cc1 [SULFAGUANIDINE]					11.23	10.9	17.9	21.76				
Cc1cc(C)nc(NS(=O)(=O)c2ccc(N)cc2)n1 [SULFAMETHAZINE]	15.1	16.9	18.8	18.56	15.4	19.96	21.76	22.08				
Cc1nnc(NS(=O)(=O)c2ccc(N)cc2)s1 [SULFAMETHIZOLE]	16.2	17.43	22.2	25.5	18.06	19.13	19.46	20.5	30.3	29.86	29.6	27.76
Cc1cc(NS(=O)(=O)c2ccc(N)cc2)no1 [SULFAMETHOXAZOLE]	19.63	22.93	23.23	24.03	22.8	25.46	27.43	27.9	11.63	14.92	22.43	26.46
Nc1ccc(S(N)(=O)=O)cc1 [SULFANILAMIDE]	20.43	22.3	22.86	25.55								
